# Test results from patent publication US6469013B2, “Therapeutic compounds” (Parker Hughes Institute, priority 1998, dated 2002).
# pIC50: −log10 of the molar value. Read-outs that look alike come from different tables or passages of the source.
# Key:
# human JAK3 = target: T1, human JAK3 (Homo sapiens, UniProt P52333); experiment: JAK3 immune complex kinase assay (JAK3 immunoprecipitated from KL2 EBV-transformed B cell line); format: biochemical
# T1 sequence (P52333 1-1124): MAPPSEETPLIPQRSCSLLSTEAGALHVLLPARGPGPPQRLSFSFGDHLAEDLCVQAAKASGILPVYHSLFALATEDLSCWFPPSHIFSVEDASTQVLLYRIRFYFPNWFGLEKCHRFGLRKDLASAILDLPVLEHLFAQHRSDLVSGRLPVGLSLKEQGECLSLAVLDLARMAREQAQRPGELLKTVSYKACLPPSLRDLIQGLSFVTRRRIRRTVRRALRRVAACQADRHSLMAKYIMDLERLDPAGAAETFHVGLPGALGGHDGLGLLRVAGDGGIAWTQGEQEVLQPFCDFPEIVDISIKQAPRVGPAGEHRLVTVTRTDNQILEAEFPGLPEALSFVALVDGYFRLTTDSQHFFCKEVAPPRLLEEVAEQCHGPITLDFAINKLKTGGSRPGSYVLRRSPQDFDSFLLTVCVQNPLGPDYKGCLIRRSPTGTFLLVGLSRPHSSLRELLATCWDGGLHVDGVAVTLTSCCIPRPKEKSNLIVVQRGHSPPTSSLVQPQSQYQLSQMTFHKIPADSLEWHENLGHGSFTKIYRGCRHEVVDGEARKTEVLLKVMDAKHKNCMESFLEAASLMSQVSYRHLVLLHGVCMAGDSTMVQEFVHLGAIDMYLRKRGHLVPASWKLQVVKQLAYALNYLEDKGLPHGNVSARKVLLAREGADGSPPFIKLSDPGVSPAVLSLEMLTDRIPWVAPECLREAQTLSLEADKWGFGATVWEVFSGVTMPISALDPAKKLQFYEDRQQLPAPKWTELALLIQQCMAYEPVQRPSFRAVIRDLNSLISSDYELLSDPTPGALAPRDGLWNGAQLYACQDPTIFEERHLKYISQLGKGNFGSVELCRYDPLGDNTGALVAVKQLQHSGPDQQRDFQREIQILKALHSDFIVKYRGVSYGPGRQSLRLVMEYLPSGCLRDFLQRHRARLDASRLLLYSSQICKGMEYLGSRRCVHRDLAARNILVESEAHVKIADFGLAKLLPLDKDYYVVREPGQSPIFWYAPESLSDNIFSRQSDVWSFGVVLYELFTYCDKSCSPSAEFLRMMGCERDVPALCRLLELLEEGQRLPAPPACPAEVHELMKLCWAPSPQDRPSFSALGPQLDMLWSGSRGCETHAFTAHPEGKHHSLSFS
# Experimental: (§1) In JAK3 immune complex kinase assays (17, 22), KL-2 EBV-transformed human lymphoblastoid B cells (native JAK3 kinase assays) or insect ovary cells (recombinant JAK3 kinase assays) were lysed with NP-40 lysis buffer (50 mM Tris, pH 8, 150 mM NaCl, 5 mM EDTA, 1% NP-40, 100 μM sodium orthovanadate, 100 μM sodium molybdate, 8 μg/ml aprotinin, 5 μg/ml leupeptin, and 500 μM PMSF) and centrifuged 10 min at 13000× g to remove insoluble material. Samples were immunoprecipitated with antisera prepared against JAK3. The antisera were diluted and immune complexes collected by incubation with 15 μl protein A Sepharose. After 4 washes with NP-40 lysis buffer, the protein A Sepharose beads were washed once in kinase buffer (20 mM MOPS, pH7, 10 mM MgCl2) and resuspended in the same buffer. Reactions were initiated by the addition of 25 μCi [γ^32P] ATP (5000 Ci/mMole) and unlabeled ATP to a final concentration of 5 μM. Reactions were terminated by boiling for 4 min in SDS sample buffer. Samples were run on 9.5% SDS polyacrylamide gels and labeled proteins were detected by autoradiography. Following electrophoresis, kinase gels were dried onto Whatman 3M filter paper and subjected to phosphorimaging on a Molecular Imager (Bio-Rad, Hercules, Calif.) as well as autoradiography on film. For each drug concentration, a kinase activity index (KA) was determined by comparing the kinase activity in phosphorimager units (PIU) to that of the baseline sample. In some experiments, cold kinase assays were performed, as described by (Uckun, F. M., et al., Clin. Can. Res. 4: 901-912, 1998).
# We first used immune complex kinase assays to compare the effects of the synthesized dimethoxyquinazoline compounds on the enzymatic activity of human JAK3 immunoprecipitated from the KL2 EBV-transformed human lymphoblastoid B cell line.
# recombinant murine JAK3 = target: T2, recombinant murine JAK3 (Mus musculus, UniProt Q62137); experiment: Recombinant JAK3 immune complex kinase assay (baculovirus, Sf21); format: biochemical
# T2 sequence (Q62137 1-1100): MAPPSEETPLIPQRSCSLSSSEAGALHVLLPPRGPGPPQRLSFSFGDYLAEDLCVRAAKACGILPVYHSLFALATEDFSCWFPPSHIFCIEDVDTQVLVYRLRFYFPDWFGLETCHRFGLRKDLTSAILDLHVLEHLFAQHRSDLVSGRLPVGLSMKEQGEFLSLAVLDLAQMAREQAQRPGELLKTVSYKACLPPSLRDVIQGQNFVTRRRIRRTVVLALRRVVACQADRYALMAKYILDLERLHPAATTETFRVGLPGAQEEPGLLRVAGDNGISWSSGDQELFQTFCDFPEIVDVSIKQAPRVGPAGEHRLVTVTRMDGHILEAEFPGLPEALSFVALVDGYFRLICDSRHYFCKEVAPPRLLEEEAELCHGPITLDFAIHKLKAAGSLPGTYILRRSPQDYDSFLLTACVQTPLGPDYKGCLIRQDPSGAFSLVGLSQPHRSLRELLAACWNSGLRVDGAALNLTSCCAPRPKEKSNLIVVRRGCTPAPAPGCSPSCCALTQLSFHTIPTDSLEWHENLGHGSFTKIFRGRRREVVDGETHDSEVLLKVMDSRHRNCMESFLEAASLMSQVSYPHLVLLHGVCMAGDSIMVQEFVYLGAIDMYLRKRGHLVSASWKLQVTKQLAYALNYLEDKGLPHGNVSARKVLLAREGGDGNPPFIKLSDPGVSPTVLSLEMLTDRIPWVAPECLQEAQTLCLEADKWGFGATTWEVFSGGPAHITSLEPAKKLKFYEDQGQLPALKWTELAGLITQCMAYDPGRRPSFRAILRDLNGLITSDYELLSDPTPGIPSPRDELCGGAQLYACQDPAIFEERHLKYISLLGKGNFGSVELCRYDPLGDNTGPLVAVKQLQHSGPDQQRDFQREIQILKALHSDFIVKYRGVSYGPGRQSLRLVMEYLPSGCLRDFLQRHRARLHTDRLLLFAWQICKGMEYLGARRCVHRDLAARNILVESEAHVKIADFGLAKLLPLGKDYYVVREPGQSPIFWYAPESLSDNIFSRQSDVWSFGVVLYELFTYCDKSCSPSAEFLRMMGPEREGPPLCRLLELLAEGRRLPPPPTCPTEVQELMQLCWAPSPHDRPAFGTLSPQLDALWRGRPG
# Experimental: Sf21 (IPLB-SF21-AE) cells (Vassilev, A., et al., J. Biol. Chem. 274: 1646-1656, 1999) derived from the ovarian tissue of the fall armyworm Spodotera frugiperda, were obtained from Invitrogen (Carlsbad, Calif.) and maintained at 26-28° C. in Grace's insect cell medium supplemented with 10% FBS and 1.0% antibiotic/antimycotic (GIBCO-BRL). Stock cells were maintained in suspension at 0.2-1.6×10^6/ml in 600 ml total culture volume in 1 L Bellco spinner flasks at 60-90 rpm. Cell viability was maintained at 95-100% as determined by trypan blue dye exclusion. Sf21 cells were infected with a baculovirus expression vector for BTK, SYK, JAK1, JAK2, or JAK3. Cells were harvested, lysed (10 MM Tris pH7.6, 100 mM NaCl, 1% Nonidet P40, 10% glycerol, 50 mM NaF, 100 μM Na3VO4, 50 μg/ml phenylmethylsulfonyl fluoride, 10 μg/ml aprotonin, 10 μg/ml leupeptin), the kinases were immunoprecipitated from the lysates, and their enzymatic activity assayed, as reported (Vassilev, A., et al., J. Biol. Chem. 274: 1646-1656, 1999; Uckun, F. M., et al., Science. 22: 1096-1100, 1996; Goodman, P. A., et al., J. Biol. Chem. 273: 17742-48, 1998; Mahajan, S., et al., Mol. Cell. Biol. 15: 5304-11, 1995; and Uckun, F. M., et al., Science. 267: 886-91, 1995). The immunoprecipitates were subjected to Western blot analysis as previously described (Vassilev, A., et al., J. Biol. Chem. 274: 1646-1656, 1999; and Uckun, F. M., et al., Science. 22: 1096-1100, 1996).
# as §1, with “Following electrophoresis, kinase gels were dried onto Whatman 3M filter paper and subjected to phosphorimaging on a Molecular Imager (Bio-Rad, Hercules, Calif.) as well as autoradiography on film.” left out, “In some experiments, cold kinase assays were performed, as described by (Uckun, F. M., et al., Clin. Can. Res. 4: 901-912, 1998).” left out
# [1] = JAK3 kinase assay, KL2 cell-derived human JAK3, read-out: IC50
smiles,measurement,setting,value
COc1cc2ncnc(Nc3cccc(Br)c3)c2cc1OC [WHI-P79],pIC50,human JAK3; [1],< 3.52
"COc1cc2ncnc(Nc3cc(Br)c(O)c(Br)c3)c2cc1OC [WHI-P97, 4-(3′,5′-dibromo-4′-hydroxyl-phenyl)-amino-6,7-dimethoxyquinazoline]",pIC50,human JAK3; [1],4.96
COc1cc2ncnc(Nc3ccc(C)c(Br)c3)c2cc1OC [WHI-P111],melting point,,225 to 228 °C
same,pIC50,human JAK3; [1],< 3.52
COc1cc2ncnc(Nc3ccccc3O)c2cc1OC [WHI-P132],pIC50,human JAK3,< 3.52
same,activity against JAK3 (in words),human JAK3; biological assays,inactive against JAK3
"COc1cc2ncnc(Nc3ccc(O)c(Br)c3)c2cc1OC [WHI-P154, 4-(3′bromo4′-hydroxyl-phenyl)-amino-6,7-dimethoxyquinazoline]",pIC50,recombinant murine JAK3; recombinant murine JAK3,3.89
same,pIC50,"recombinant murine JAK3; recombinant murine JAK3, converted from μg/ml",~3.89
COc1cc2ncnc(Nc3ccc(O)c(Cl)c3)c2cc1OC [WHI-P197],melting point,,245 °C (dec.)
"COc1cc2ncnc(Nc3ccccc3)c2cc1OC [WHI-P258, 4-(phenyl)-amino-6,7-dimethoxyquinazoline]",pIC50,human JAK3; [1],< 3.52
